Experimental data taken from ChEMBL document CHEMBL5604063, “ASAP - DENV-2 NS2B-NS3 protease fluorescence dose response” (2024).
Several values for one entry are separate records, joined by “and”; a condition that tells them apart may be missing. Identical values can stand only once.

Key:
[1] = target: T1, Genome polyprotein (dengue virus type 2, UniProt P29990); format: functional, Thailand/16681/1984
[2] = target: T1, Genome polyprotein; format: functional, Thailand/16681/1984; remark: listed apart in the source

T1 sequence (P29990 1346-1475 limits assumed): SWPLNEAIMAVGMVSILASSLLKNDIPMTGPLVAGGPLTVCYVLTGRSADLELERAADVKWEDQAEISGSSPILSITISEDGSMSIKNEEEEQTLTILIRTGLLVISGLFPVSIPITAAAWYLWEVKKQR
T1 sequence (P29990 1476-2093 limits assumed): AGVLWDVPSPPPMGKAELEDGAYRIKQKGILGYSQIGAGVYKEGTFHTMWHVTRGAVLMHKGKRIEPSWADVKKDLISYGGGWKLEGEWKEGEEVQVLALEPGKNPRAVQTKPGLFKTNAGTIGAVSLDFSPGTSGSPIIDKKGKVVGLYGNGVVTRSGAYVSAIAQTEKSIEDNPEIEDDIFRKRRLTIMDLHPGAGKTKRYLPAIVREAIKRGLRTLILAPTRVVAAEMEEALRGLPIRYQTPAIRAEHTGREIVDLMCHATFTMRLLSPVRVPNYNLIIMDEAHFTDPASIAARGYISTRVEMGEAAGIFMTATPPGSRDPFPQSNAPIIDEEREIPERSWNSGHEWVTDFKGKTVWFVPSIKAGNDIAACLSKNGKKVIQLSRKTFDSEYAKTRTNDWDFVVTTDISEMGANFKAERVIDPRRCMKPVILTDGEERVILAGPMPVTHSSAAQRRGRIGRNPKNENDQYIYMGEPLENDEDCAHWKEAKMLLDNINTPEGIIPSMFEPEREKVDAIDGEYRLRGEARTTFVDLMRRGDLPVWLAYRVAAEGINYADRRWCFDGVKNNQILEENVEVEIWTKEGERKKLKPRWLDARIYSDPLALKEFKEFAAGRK

Row | Compound | IC50 [1] | IC50 [2]
1 | Brc1csc(CNCCc2nnc[nH]2)c1 | > 99.5 µM | > 100 µM
2 | Cc1cc(C(=O)Nc2cccc(CN)c2)c2cnn(-c3ccc(F)cc3)c2n1 | > 99.5 µM | > 100 µM
3 | COCc1cc(NC(=O)OCc2ccccc2)cc(C(=O)Nc2cccc(CN)c2)c1 | > 99.5 µM | > 100 µM
4 | NCc1cccc(NC(=O)c2cc(Cl)cc(Cl)c2)c1 | > 99.5 µM | > 100 µM
5 | CC(C)c1cc(NC(=O)OCc2ccccc2)cc(C(=O)Nc2cccc(CN)c2)c1 | 66.9 µM | > 100 µM
6 | CNC(=O)C[C@H](Nc1ccccn1)c1cc(Cl)cc(Br)c1 | > 99.5 µM | > 100 µM
7 | CN(C)Cc1cc(Cl)cc(C(=O)Nc2cccc(CN)c2)c1 | > 99.5 µM | > 100 µM
8 | CCn1c(=O)c(N2CC[C@H](CO)C2)nc2ccc(C(=O)N(C)C)cc21 | > 99.5 µM | > 100 µM
9 | NCc1ccc(I)c(NC(=O)c2cc(Cl)cc(NC(=O)OCc3ccccc3)c2)c1 | 52.1 µM | > 100 µM
10 | NCc1cccc(NC(=O)c2cc(Cl)cc([C@H]3CCCCN3)c2)c1 | > 99.5 µM | > 100 µM
11 | O=C(Nc1cc(Cl)cc(C(=O)Nc2cccc([C@H]3C[C@H]3C(=O)O)c2)c1)OCc1ccccc1 | 19.6 µM and 25.7 µM and 26.9 µM and 24.8 µM | 12.3 µM (3×) and 10.2 µM and 15.6 µM and 14.8 µM
12 | NCc1cccc(NC(=O)c2cc(NC(=O)OCc3ccccc3)cc(C3CC3)c2)c1 | 76.1 µM | > 100 µM
13 | C[C@H]1CN(C)C[C@@H](C(=O)Nc2cccc(CN)c2)O1 | > 99.5 µM | > 100 µM
14 | Cc1cc(NC(=O)OCc2ccccc2)cc(C(=O)Nc2cccc(CN)c2)c1 | > 99.5 µM | > 100 µM
15 | CS(=O)(=O)c1cc(CN)cc(NC(=O)c2cc(Cl)cc(NC(=O)OCc3ccccc3)c2)c1 | > 99.5 µM | > 100 µM
16 | O=C(O)COc1cccc(NC(=O)c2cc(Cl)cc(NC(=O)OCc3ccccc3)c2)c1 | 45.5 µM | 28 µM and 22.5 µM
17 | CNC(=O)[C@H](Nc1cccc(N)n1)c1cc(Cl)cc(CN)c1 | > 99.5 µM | > 100 µM
18 | C[C@H]1C[C@@H](C(=O)Nc2cccc(CN)c2)CC(=O)N1 | > 99.5 µM | > 100 µM
19 | O=C1NC[C@H](c2ccc(OCc3ccccc3)c(Br)c2)N1C(=O)OCc1ccccc1 | > 99.5 µM | > 100 µM
20 | O=Cc1cc(Cl)cc(NC(=O)OCc2ccccc2)c1 | > 99.5 µM | > 100 µM
21 | CCn1c(=O)c(N2CC[C@H](CO)C2)nc2cc(C(=O)O)ccc21 | > 99.5 µM | > 100 µM
22 | NCCNS(=O)(=O)c1ccc(NC(=O)c2cc(Cl)cc(NC(=O)OCc3ccccc3)c2)cc1 | 33.6 µM | > 100 µM

Row | Compound | IC50 [1] | IC50 [2]
23 | NCc1cccc(NC(=O)C2CCNCC2)c1 | > 99.5 µM | > 100 µM
24 | NCc1cc(Br)cc(NC(=O)c2cc(Cl)cc(NC(=O)OCc3ccccc3)c2)c1 | > 99.5 µM | > 100 µM
25 | CC1(C)CCC(F)(F)C[C@H]1C(=O)Nc1cccc(CN)c1 | > 99.5 µM | > 100 µM
26 | OCCCCCc1nc(-c2ccc(Br)o2)no1 | > 99.5 µM | > 100 µM
27 | CCn1ncc2c(C(=O)Nc3cccc(CN)c3)cc(C)nc21 | > 99.5 µM | > 100 µM
28 | O=C(Nc1cc(Cl)cc(C(=O)Nc2ccc(C3CCNCC3)cc2)c1)OCc1ccccc1 | 15.7 µM and 21.1 µM | 41.3 µM
29 | Cc1cc(C(=O)Nc2cccc(CN)c2)nc(C)n1 | > 99.5 µM | > 100 µM
30 | O=C(Nc1cc(Cl)cc(C(=O)Nc2cccc(CN3CCCC3=O)c2)c1)OCc1ccccc1 | > 99.5 µM | > 100 µM
31 | O=C(Nc1cc(Cl)cc(C(=O)Nc2ccc3c(c2)OCCNC3)c1)OCc1ccccc1 | > 99.5 µM | > 100 µM
32 | Cc1cc(C(=O)Nc2cccc(CN)c2)cc(O)n1 | > 99.5 µM | > 100 µM
33 | Cc1cnnc(C(=O)Nc2cccc(CN)c2)c1 | > 99.5 µM | > 100 µM
34 | N#CC[C@H](N)c1cccc(NC(=O)c2cc(Cl)cc(NC(=O)OCc3ccccc3)c2)c1 | > 99.5 µM | > 100 µM
35 | CCn1c(=O)c(N2CC[C@H](CO)C2)nc2ccc(C(=O)NCc3ccccc3)cc21 | 95.1 µM | > 100 µM
36 | Cc1ccc(S(=O)(=O)CCCn2ccc3sccc3c2=O)cc1 | > 99.5 µM | > 100 µM
37 | c1coc(CSCc2nc(-c3nc[nH]n3)no2)c1 | > 99.5 µM | > 100 µM
38 | NCc1cccc(NC(=O)c2cc(NC(=O)OCc3ccccc3)cc(C(F)(F)F)c2)c1 | > 99.5 µM | > 100 µM
39 | CN(C)CCc1ccc(NC(=O)c2cc(Cl)cc(NC(=O)OCc3ccccc3)c2)cc1 | > 99.5 µM | > 100 µM
40 | N#CCc1cccc(NC(=O)c2cc(Cl)cc(NC(=O)OCc3ccccc3)c2)c1 | > 99.5 µM | > 100 µM
41 | CCn1c(=O)c(N2CC[C@H](CO)C2)nc2cc(C(=O)N(C)C)ccc21 | > 99.5 µM | > 100 µM
42 | COc1ccc2nc(C)cc(C(=O)Nc3cccc(CN)c3)c2c1 | > 99.5 µM | > 100 µM
43 | CC(C)(C)OC(=O)NCc1ccc(I)c(NC(=O)c2cc(Cl)cc(NC(=O)OCc3ccccc3)c2)c1 | > 99.5 µM | > 100 µM
44 | NCc1cccc(NC(=O)c2cncc(Cl)c2)c1 | > 99.5 µM | > 100 µM

Row | Compound | IC50 [1] | IC50 [2]
45 | CNC(=O)[C@H](Nc1ccccn1)c1cc(Cl)cc(CN)c1 | > 99.5 µM | > 100 µM
46 | O=C(Nc1cc(Cl)cc(C(=O)Nc2ccc(CCN3CCOCC3)cc2)c1)OCc1ccccc1 | > 99.5 µM | > 100 µM
47 | Cc1cc(C(=O)Nc2cccc(CN)c2)c2sc(N)nc2n1 | > 99.5 µM | > 100 µM
48 | Cc1cc(C(=O)Nc2cccc(CN)c2)c2c(C)n[nH]c2n1 | > 99.5 µM | > 100 µM
49 | Cc1cc(C(=O)Nc2cccc(CN)c2)cc(NCc2cnn(C)c2)n1 | > 99.5 µM | > 100 µM
50 | O=C(Nc1cc(Cl)cc(C(=O)Nc2ccc(N3CCNCC3)c(F)c2)c1)OCc1ccccc1 | 74.1 µM | > 100 µM
51 | O=C(Nc1ccc2c(c1)CNC2)c1cc(O)nc(C2CC2)c1 | > 99.5 µM | > 100 µM
52 | N[C@H]1CC[C@H](c2ccc(NC(=O)c3cc(Cl)cc(NC(=O)OCc4ccccc4)c3)cc2)C1 | 10.2 µM and 8.32 µM and 13 µM | 84.2 µM
53 | Brc1cnc(Sc2ncc[nH]2)nc1 | > 99.5 µM | > 100 µM
54 | C[C@H]1CN(C)C[C@H](C(=O)Nc2cccc(CN)c2)O1 | > 99.5 µM | > 100 µM
55 | CCn1c(=O)c(N2CC[C@H](CO)C2)nc2cc(C(=O)NS(C)(=O)=O)ccc21 | > 99.5 µM | > 100 µM
56 | CCNC(=O)c1ccc2nc(N3CC[C@H](CO)C3)c(=O)n(CC)c2c1 | 90.4 µM | > 100 µM
57 | Cc1cc(C(=O)N[C@H](CC(=O)Nc2cccc(CN)c2)c2ccc(OCc3ccccc3)c(Br)c2)sn1 | 16.8 µM and 25.3 µM | > 100 µM
58 | CS(=O)(=O)Nc1cccc(NC(=O)c2cc(Cl)cc(NC(=O)OCc3ccccc3)c2)c1 | > 99.5 µM | > 100 µM
59 | CCn1c(=O)c(N2CC[C@H](CO)C2)nc2cc(C(=O)NCc3ccccc3)ccc21 | > 99.5 µM | > 100 µM
60 | CN(C)CC[C@H](NC(=O)c1cc(Cl)cc(NC(=O)OCc2ccccc2)c1)c1ccccc1 | > 99.5 µM | > 100 µM
61 | CS(=O)(=O)c1ccc(NC(=O)c2cc(Cl)cc(NC(=O)OCc3ccccc3)c2)cc1 | > 99.5 µM | > 100 µM
62 | NCc1cc(NC(=O)c2cc(Cl)cc(NC(=O)OCc3ccccc3)c2)cc(C2CC2)c1 | 72 µM | > 100 µM
63 | CCc1cccc(NC(=O)[C@]2(Oc3ccc(Br)cc3)CCNC3(CC3)C2)c1 | > 99.5 µM | > 100 µM
64 | CCOc1cccc(-c2ccc(NS(=O)(=O)c3cc(F)c(Cl)cc3C(=O)O)cc2)c1 | 9.4 µM | 7.73 µM
65 | CS(=O)(=O)c1cccc(NC(=O)c2cc(Cl)cc(NC(=O)OCc3ccccc3)c2)c1 | > 99.5 µM | > 100 µM
66 | C[C@H]1CNC[C@@H]1c1ccc(NC(=O)c2cc(Cl)cc(NC(=O)OCc3ccccc3)c2)cc1 | 22.4 µM | 96.6 µM

Row | Compound | IC50 [1] | IC50 [2]
67 | CCn1c(=O)c(N2CC[C@@H](CO)C2)nc2ccc(C(=O)O)cc21 | > 99.5 µM | > 100 µM
68 | CNC(=O)C[C@H](Nc1ccccn1)c1cc(Cl)cc(CN)c1 | > 99.5 µM | > 100 µM
69 | CCNC(=O)c1ccc2c(c1)nc(N1CC[C@H](CO)C1)c(=O)n2CC | > 99.5 µM | > 100 µM
70 | O=C(Nc1cc(Cl)cc(C(=O)Nc2ccc([C@]34CNC[C@H]3C4)cc2)c1)OCc1ccccc1 | > 99.5 µM | > 100 µM
71 | C[C@H]1Oc2ccc(NC(=O)c3cc(Cl)cc(NC(=O)OCc4ccccc4)c3)cc2NC1=O | > 99.5 µM | > 100 µM
72 | NCc1cccc(NC(=O)[C@H]2CCOC3(CCC3)C2)c1 | > 99.5 µM | > 100 µM
73 | C[C@H]1CN(Cc2ccccc2)C[C@@H](C(=O)Nc2cccc(CN)c2)O1 | > 99.5 µM | > 100 µM
74 | Cc1cc(Cl)cc(C(=O)Nc2cccc(CN)c2)n1 | > 99.5 µM | > 100 µM
75 | NCc1cccc(NC(=O)c2cc(Cl)cc(Cl)c2OCc2ccccc2)c1 | 44.7 µM | 42.6 µM
76 | O=C(Nc1cc(Cl)cc(C(=O)Nc2ccc(C3CNC3)cc2)c1)OCc1ccccc1 | 39.2 µM | > 100 µM
77 | COC1(C(=O)N[C@H](CC(=O)Nc2cccc(CN)c2)c2ccc(OCc3ccccc3)c(Br)c2)CC1 | > 99.5 µM | > 100 µM
78 | O=S(=O)(Cc1nnc(Cc2ccccc2)o1)c1ccc(O)cc1 | > 99.5 µM | > 100 µM
79 | COC(=O)[C@]12CC[C@](C(=O)Nc3cccc(CN)c3)(COC1)C2 | > 99.5 µM | > 100 µM
80 | CN1CCc2c(cccc2NC(=O)c2cc(Cl)cc(NC(=O)OCc3ccccc3)c2)C1 | > 99.5 µM | > 100 µM
81 | N#Cc1cc(NC(=O)OCc2ccccc2)cc(C(=O)Nc2cccc(CN)c2)c1 | > 99.5 µM | > 100 µM
82 | Cc1cc(C(=O)Nc2cccc(CN)c2)c2c(n1)CCCC2 | > 99.5 µM | > 100 µM
83 | Cc1[nH]c2ccc(Br)cc2c1CC(=O)Nc1cccc(CN)c1 | > 99.5 µM | > 100 µM
84 | NCc1cccc(NC(=O)[C@@H]2CCCCN2)c1 | > 99.5 µM | > 100 µM
85 | C[C@H]1C[C@@H](C(=O)Nc2cccc(CN)c2)CCO1 | > 99.5 µM | > 100 µM
